# Laboratory results as given in US20240150339A1, “Compounds and Their Use as PDE4 Activators” (Mironid Limited, priority 2021, published 2024).
# Structures can show the parent of a compound that is named as a salt.
# What was measured:
# m-IMCD3 cells = experiment: Inhibition of PGE2-stimulated in vitro cyst formation in 3D culture of m-IMCD3 cells; assay type: cell-based, mouse; settings: Mus musculus, mIMCD3, 144 h; 10 μM test compound; mean cyst area (%) compared to 100% for (DMSO + PGE2) and 0% for DMSO control; 100 nM PGE2; 6 days; read-out: % Cyst area after incubation with 10 μM test compound
# Procedure, shortened: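 Mouse m-IMCD3 cells grown in 3D collagen I/Matrigel gels. From 18-24 h after plating, compound (0.1% DMSO) plus 100 nM PGE2 were added and replenished at 2-3 days. After 6 days, imaging gave mean cyst area, scaled to 100% for DMSO+PGE2 and 0% for DMSO alone.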
# MDCK cells = experiment: Inhibition of PGE2-stimulated in vitro cyst formation in 3D culture of MDCK cells; assay type: cell-based; settings: total cyst area (%) compared to 100% for (DMSO + PGE2) and 0% for DMSO control, 300 nM PGE2
# Method: HEK 293 and MDCK cells (Public Health England, Cell Culture Collections) were maintained in Dulbecco's Modified Eagle's Medium (DMEM) supplemented with 10% (v/v) fetal bovine serum (FBS) (Seralab), 2 mM L-glutamine and 100 U/ml penicillin streptomycin cocktail (ThermoFisher); termed complete media. Clonal HEK 293 cell lines were maintained in complete media supplemented with 0.6 mg/mL G418 (Enzo Life Sciences). Mouse inner medullary collecting duct (m-IMCD3) cells [American Type Culture Collection (ATCC)] were maintained in media consisting of DMEM/Hams F-12 50/50 Mix (DMEM F12; Corning) supplemented with penicillin streptomycin cocktail (100 U/ml) and FBS (10% v/v) (DMEM F12-10% FBS).
# In this study, the well-established three-dimensional (3D) MDCK cell model is used to investigate the effects of PDE4 long form activators on the formation of kidney cysts and evaluate their potential in the treatment of polycystic kidney diseases. 3D cysts are generated based on the method of Mao et al. (Mao, Z., Streets, A. J., Ong, A. C. M. Am. J. Physiol. Renal Physiol. 300 (6): F1375-F1384, 2011), with some modifications.
# The assay is conducted in the wells of a 96-well plate culture dish using a total volume of 130 μl of collagen suspension in growth media for each matrix plug per individual well. Rat Collagen I (Fisher Scientific) is prepared on ice by neutralising with 1M NaOH and diluting with a 2×volume of DMEM-2% FBS. 30 μl of collagen/Media mix is added into the well of a 96 well plate and the collagen is set to a gel by incubating at 37° C. for at least 15 minutes. A second layer of 100 μl collagen/Matrigel suspension containing MDCK cells (1.0×10^4 MDCK cells per well) is then layered over the first layer and the collagen/cell mix again set to a gel by incubating at 37° C. 100 μl DMEM growth media is added and cells are incubated at 37° C. for 24 hours. 24 hours after cell seeding, DMEM-2% FBS is added along with the test compound indicated in the presence of 300 nM prostaglandin E2 (PGE2) (Sigma Aldrich) in quadruplicate wells per condition. Media, together with the test compound and PGE2 are replenished every 3 days for 10-15 days.
# After 10-15 days of culture z stack images of the wells are captured using the Nikon Eclipse Ti2-E microscope. Nikon General Analysis software is used to measure the following parameters in each well: the mean cyst area, the number of cysts, and the total cyst area.
# PDE4 long form activators inhibited in vitro cyst formation in MDCK cells. Data are shown in Table 6 as total cyst area (%), compared to 100% for (DMSO+PGE2) and 0% for DMSO control.
# m-IMCD3 cell culture = experiment: Reduction of cAMP levels in m-IMCD3 cell culture media (cAMP ELISA); assay type: cell-based, mouse; settings: compared to 100% for (DMSO + PGE2)
# Excerpt: Experiment 4a: Reduction of cAMP Levels in m-IMCD3 Cell Culture Treated with PDE4 Long Form Activators Activation of intracellular PDE4 long forms leads to a reduction of both intracellular cAMP and externalised cAMP (Omar et al., PNAS 116: 13320-13329, 2019). This reduction may be measured in the cell culture media supernatant of 3D cystic cell cultures, such as in the m-IMCD3 cell cyst suppression assay described in Experiment 4.
# Following the completion of the m-IMCD3 cell cyst suppression assay, the cAMP levels in the assay media from individual assay wells was measured using a cAMP ELISA kit (Enzo Life Sciences) according to the manufacturer's instructions.
# Treatment with PDE4 long form activators reduced cAMP levels in PGE2-stimulated m-IMCD3 cell culture.
Compound,activity at 10 µM (m-IMCD3 cells) [%],% Cyst area after incubation with 1 μM test compound (MDCK cells) [%],cAMP level (% of PGE2-stimulated) after incubation with 10 μM test compound (m-IMCD3 cell culture) [%]
"O=C(N[C@H]1CCOc2ccccc21)c1ccc2nc(N3CCNCC3)sc2c1 [Example 83, (S)-N-(chroman-4-yl)-2-(piperazin-1-yl)benzo[d]thiazole-6-carboxamide hydrochloride]",6,−1,
"O=C(NC1CCC(F)(F)CC1)c1ccc2nc(N3CC4CCC(C3)N4)sc2c1 [Example 245, 2-(3,8-diazabicyclo[3.2.1]octan-3-yl)-N-(4,4-difluorocyclohexyl)-benzo[d]thiazole-6-carboxamide]",,4,
"O=C(NC1CCC(F)(F)CC1)c1ccc2nc(N3CC4CCC(C3)N4CCO)sc2c1 [Example 247, N-(4,4-difluorocyclohexyl)-2-(8-(2-hydroxyethyl)-3,8-diazabicyclo[3.2.1]octan-3-yl)benzo[d]thiazole-6-carboxamide]",,1,
"O=C(NC1CCC(F)(F)CC1)c1ccc2nc(N3C4CCC3CNC4)sc2c1 [Example 240, 2-(3,8-diazabicyclo[3.2.1]octan-8-yl)-N-(4,4-difluorocyclohexyl)-benzo[d]thiazole-6-carboxamide]",5,,41
"COc1c(C(=O)NC2CCCC2)ccc2nc(N3C4CCC3CNC4)sc12 [Example 236, 2-(3,8-diazabicyclo[3.2.1]octan-8-yl)-N-cyclopentyl-7-methoxybenzo[d]thiazole-6-carboxamide]",,20,
"CC(C)NC(=O)c1cc(C#N)c2nc(N3C4CCC3CNC4)sc2c1 [Example 238, 2-(3,8-diazabicyclo[3.2.1]octan-8-yl)-4-cyano-N-isopropylbenzo[d]thiazole-6-carboxamide]",,24,
"O=C(NC1CCC(F)(F)CC1)c1ccc2nc(C3CCN(CCO)CC3)sc2c1 [Example 174, N-(4,4-difluorocyclohexyl)-2-(1-(2-hydroxyethyl)piperidin-4-yl)benzo[d]thiazole-6-carboxamide]",,,27
"CN1CCC(c2nc3ccc(C(=O)NC4CCCC4)cc3s2)CC1 [Example 151, N-cyclopentyl-2-(1-methylpiperidin-4-yl)benzo[d]thiazole-6-carboxamide]",10,,54
"CN1CCN(c2nc3ccc(C(=O)NC4CCCC4)cc3s2)CC12CC2 [Example 260, N-cyclopentyl-2-(4-methyl-4,7-diazaspiro[2.5]octan-7-yl)benzo[d]thiazole-6-carboxamide]",,11,
